Results from the supplement of paper PMC10949913.

Columns and labels:
Conditions in all cases: 48 h
CU-ACC2 [1] = test: area under concentration-response curve (viability) (AUC (a.u.)); higher = less active
Outline: (§1)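 In 1,536-well plates, 500–1,000 cells/well of three adrenocortical carcinoma cell lines in 5 µL medium received 23 nL of each library compound across 11 concentrations. At 48 h, CellTiter-Glo was incubated for 15 minutes at room temperature and luminescence measured. Per-plate normalisation used vehicle and empty-well controls, and only inhibitory or non-responding curve classes were kept when fitting concentration-response curves for AC50 and area under the curve.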

CU-ACC1 [2] = test: as above
Outline: as §1

CU-ACC2 [3] = test: AC50 viability; higher = less potent
Outline: as §1

NCI-H295R [4] = test: area under concentration-response curve (viability) (AUC (a.u.)); higher = less active
Outline: as §1

CU-ACC1 [5] = test: AC50 viability; higher = less potent
Outline: as §1

NCI-H295R [6] = test: AC50 viability; higher = less potent
Outline: as §1

COc1c(C)cnc(Cn2cnc3c(Cl)nc(N)nc32)c1C
area under concentration-response curve (CU-ACC2 [1]): 378
area under concentration-response curve (CU-ACC1 [2]): 361
AC50 viability (CU-ACC2 [3]): 0.661 µM

C\C1=C(\[C@@H](OC2=C1C=CC(=C2)O)C3=CC=C(OCCN4CCCCC4)C=C3)C5=CC=C(O)C=C5
area under concentration-response curve (CU-ACC2 [1]): 333
area under concentration-response curve (CU-ACC1 [2]): 296
AC50 viability (CU-ACC2 [3]): 0.295 µM

CN(C)c1ccc(Nc2nc(N)n(C(=O)c3c(F)cccc3F)n2)cc1
area under concentration-response curve (CU-ACC2 [1]): 553
AC50 viability (CU-ACC2 [3]): 16.6 µM

CN1CCN(CC1)\C2=N\C3=C(NC4=C2C=CC=C4)C=CC(=C3)Cl
area under concentration-response curve (CU-ACC2 [1]): 398
AC50 viability (CU-ACC2 [3]): 33.2 µM

CC[C@H](CO)Nc1nc(NCc2ccccc2)c2ncn(C(C)C)c2n1
area under concentration-response curve (CU-ACC2 [1]): 582
AC50 viability (CU-ACC2 [3]): 20.9 µM

C=C(C)[C@@H]1CCC(C)=C[C@H]1c1c(O)cc(CCCCC)cc1O
area under concentration-response curve (CU-ACC2 [1]): 489
area under concentration-response curve (CU-ACC1 [2]): 467
AC50 viability (CU-ACC2 [3]): 18.6 µM

FC1=CC2=C3[N](CCN(CC3=C1)C(=O)N4CCCCC4)C=C2C/5=C(C(=O)NC5=O)\C6=CN=C7C=CC=C[N]67
area under concentration-response curve (CU-ACC2 [1]): 549
AC50 viability (CU-ACC2 [3]): 18.6 µM

CN1CCN(c2cccc(Nc3nc4c(-c5ccc([S+](C)(=O)[O-])cc5)cccn4n3)c2)CC1
area under concentration-response curve (CU-ACC2 [1]): 552
AC50 viability (CU-ACC2 [3]): 20.9 µM

Clc1ccc(C(Cn2ccnc2)OCc2ccc(Sc3ccccc3)cc2)c(Cl)c1 (stereo not drawn)
area under concentration-response curve (CU-ACC2 [1]): 528
AC50 viability (CU-ACC2 [3]): 23.5 µM

CN(C)c1ccc2nc3ccc(N(C)C)cc3[s+]c2c1.[Cl-]
area under concentration-response curve (CU-ACC2 [1]): 482
AC50 viability (CU-ACC2 [3]): 20.9 µM

N#CCNC(=O)c1ccc(-c2ccnc(Nc3ccc(N4CCOCC4)cc3)n2)cc1
area under concentration-response curve (CU-ACC2 [1]): 514
AC50 viability (CU-ACC2 [3]): 14.8 µM

C=CC(=O)Nc1cccc(C)c1Nc1ncc2cc(-c3c(Cl)c(OC)cc(OC)c3Cl)ccc2n1
area under concentration-response curve (CU-ACC2 [1]): 475
AC50 viability (CU-ACC2 [3]): 6.61 µM

CC1(C)CC[C@@]2(CC[C@]3(C)[C@@H]([C@@H]2C1)C(=O)\C=C\4[C@@]3(C)CC[C@H]5C(C)(C)C(=O)\C(=C/[C@]45C)C#N)NC(=O)C(C)(F)F
area under concentration-response curve (CU-ACC2 [1]): 606
AC50 viability (CU-ACC2 [3]): 23.5 µM

C[S+](=O)([O-])c1cccc(CNc2nc(Nc3ccc4c(c3)CCC(=O)N4)ncc2C(F)(F)F)c1
area under concentration-response curve (CU-ACC2 [1]): 467
AC50 viability (CU-ACC2 [3]): 23.5 µM

CCNC1(C(N)=O)CCN(c2ncnc3c2nc(-c2ccccc2Cl)n3-c2ccc(Cl)cc2)CC1
area under concentration-response curve (CU-ACC2 [1]): 330
AC50 viability (CU-ACC2 [3]): 0.295 µM

O=C(O)[C@H](Cc1c[nH]c2ccccc12)N1C(=O)c2ccccc2C1=O
area under concentration-response curve (CU-ACC2 [1]): 338
AC50 viability (CU-ACC2 [3]): 37.2 µM

O=C(Nc1cc(Cl)cc2c1[nH]c1cnccc12)c1cccnc1
area under concentration-response curve (CU-ACC2 [1]): 402
AC50 viability (CU-ACC2 [3]): 0.182 µM

COc1c(Cl)cc2c([nH]c3cnccc32)c1NC(=O)c1cccnc1C
area under concentration-response curve (CU-ACC2 [1]): 374
AC50 viability (CU-ACC2 [3]): 7.42 µM

CCOc1cc2ncc(C#N)c(Nc3ccc(F)c(Cl)c3)c2cc1NC(=O)/C=C/CN(C)C
area under concentration-response curve (CU-ACC2 [1]): 419
AC50 viability (CU-ACC2 [3]): 8.33 µM

CCN(CCO)CCCOc1ccc2c(Nc3cc(CC(=O)Nc4cccc(F)c4)[nH]n3)ncnc2c1
area under concentration-response curve (CU-ACC2 [1]): 569
area under concentration-response curve (CU-ACC1 [2]): 390
area under concentration-response curve (NCI-H295R [4]): 483
AC50 viability (CU-ACC1 [5]): 23.5 µM
AC50 viability (NCI-H295R [6]): 16.6 µM

COc1cc(OC2CCN(C)CC2)ccc1Nc1ncc2c(n1)n(C1CCCC1)c(=O)n2C
area under concentration-response curve (CU-ACC2 [1]): 619
area under concentration-response curve (CU-ACC1 [2]): 447
area under concentration-response curve (NCI-H295R [4]): 528
AC50 viability (CU-ACC1 [5]): 26.3 µM
AC50 viability (NCI-H295R [6]): 23.5 µM

COc1cc(OC)cc(N2CCN(C(=O)Nc3nc4cc(F)ccc4nc3OC)CC2)c1
area under concentration-response curve (CU-ACC2 [1]): 556
area under concentration-response curve (CU-ACC1 [2]): 503
area under concentration-response curve (NCI-H295R [4]): 454
AC50 viability (CU-ACC1 [5]): 23.5 µM
AC50 viability (NCI-H295R [6]): 16.6 µM

COc1cc2nc(-c3ccc(N4CCN(C)CC4)cc3)nc(NCCN3CCOCC3)c2cc1OC
area under concentration-response curve (CU-ACC2 [1]): 397
AC50 viability (CU-ACC2 [3]): 3.72 µM

CCC[C@H](NC(=O)[C@@H]1[C@H]2CCC[C@H]2CN1C(=O)[C@@H](NC(=O)[C@@H](NC(=O)c1cnccn1)C1CCCCC1)C(C)(C)C)C(=O)C(=O)NC1CC1
area under concentration-response curve (CU-ACC2 [1]): 299
area under concentration-response curve (CU-ACC1 [2]): 333
area under concentration-response curve (NCI-H295R [4]): 285
AC50 viability (CU-ACC1 [5]): 0.00105 µM
AC50 viability (NCI-H295R [6]): 33.2 µM
